For this assay, the target named is T1, NagK (GlcNAc kinase) (Shewanella oneidensis, UniProt Q8EBK6).
T1 sequence (Q8EBK6 2-300): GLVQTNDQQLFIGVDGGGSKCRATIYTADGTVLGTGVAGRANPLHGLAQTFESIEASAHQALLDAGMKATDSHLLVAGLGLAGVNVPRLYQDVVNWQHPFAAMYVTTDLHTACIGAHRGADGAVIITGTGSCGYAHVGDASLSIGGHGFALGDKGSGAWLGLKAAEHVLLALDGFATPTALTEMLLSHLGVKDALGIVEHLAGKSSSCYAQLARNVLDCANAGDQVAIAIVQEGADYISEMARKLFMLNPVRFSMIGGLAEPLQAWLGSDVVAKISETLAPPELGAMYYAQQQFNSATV
Nature of the assay: ADP-Glo kinase assay (luminescence). The format is biochemical. To be noted: ATP; 40 mM Tris-HCl, 20 mM MgCl2, 0.1 mg/ml BSA; 0.1 to 1 mM substrate. (In ADP-Glo the light output rises with the ADP produced.)

With `CC(=O)N[C@H]1C(O)O[C@H](CO)[C@@H](O)[C@@H]1O` (stereo partly shown) [GlcNAc, N-acetylglucosamine], the “ADP-Glo kinase assay (luminescence)” value is recorded as “NagK is able to phosphorylate glucose in addition to its known substrate, GlcNAc”.

(Values after article PMC5424254, “Growth Trade-Offs Accompany the Emergence of Glycolytic Metabolism in Shewanella oneidensis MR-1” (Journal of Bacteriology, 2017).)
